Assay results from patent publication US20190010158A1, “ANTITUMOR EFFECT POTENTIATOR COMPRISING PYRROLOPYRIMIDINE COMPOUND” (TAIHO PHARMACEUTICAL CO., LTD, priority 2015, published 2019).

Tests used:
[1] = molecular target: T1, NAE (heterodimer of APPBP1 and UBA3) (Homo sapiens, UniProt Q8TBC4); experiment: Nedd8 conjugation inhibitory activity (AlphaScreen); type: biochemical; details: purified NAE, GST-UBC12, ATP, Biotin-Nedd8, reaction 90 minutes
T1 construct: amino acids 1 to 463 of human UBA3 protein; made in house; host or cells: Sf9 insect cells (baculovirus co-infection) for NAE; E. coli BL21 (DE3) for GST-UBC12
T1 sequence (Q8TBC4 1-463): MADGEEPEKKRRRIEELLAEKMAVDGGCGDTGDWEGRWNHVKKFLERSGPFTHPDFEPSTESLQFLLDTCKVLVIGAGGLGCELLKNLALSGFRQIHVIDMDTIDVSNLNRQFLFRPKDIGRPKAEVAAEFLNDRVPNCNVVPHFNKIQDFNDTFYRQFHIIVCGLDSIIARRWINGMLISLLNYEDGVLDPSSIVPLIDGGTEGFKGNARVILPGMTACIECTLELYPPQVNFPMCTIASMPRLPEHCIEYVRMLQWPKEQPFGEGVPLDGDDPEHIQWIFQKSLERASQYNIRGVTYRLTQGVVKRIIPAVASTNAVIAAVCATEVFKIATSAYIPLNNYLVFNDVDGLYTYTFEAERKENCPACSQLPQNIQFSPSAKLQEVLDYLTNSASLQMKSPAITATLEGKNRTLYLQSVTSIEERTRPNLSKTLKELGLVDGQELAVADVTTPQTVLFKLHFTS
T1 sequence (Q13564 1-534 partner): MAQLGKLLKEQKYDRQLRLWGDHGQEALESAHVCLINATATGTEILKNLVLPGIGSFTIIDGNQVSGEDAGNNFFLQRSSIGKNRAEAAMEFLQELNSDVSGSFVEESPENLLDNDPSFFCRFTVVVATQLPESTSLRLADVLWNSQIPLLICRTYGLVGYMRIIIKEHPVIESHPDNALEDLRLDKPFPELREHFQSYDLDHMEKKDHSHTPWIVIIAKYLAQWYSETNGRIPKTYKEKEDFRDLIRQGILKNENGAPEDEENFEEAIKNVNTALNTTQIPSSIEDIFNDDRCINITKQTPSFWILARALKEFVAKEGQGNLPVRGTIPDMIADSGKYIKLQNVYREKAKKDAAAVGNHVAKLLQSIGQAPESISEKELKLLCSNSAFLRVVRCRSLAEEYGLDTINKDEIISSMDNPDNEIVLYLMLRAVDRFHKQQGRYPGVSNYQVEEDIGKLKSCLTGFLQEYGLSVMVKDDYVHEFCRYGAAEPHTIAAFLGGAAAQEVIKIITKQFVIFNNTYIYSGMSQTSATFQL

[2] = test system: tumor cell lines shown in Table 44; experiment: Example 12: combined use with platinum-based antitumor agent, cell growth inhibition test (IC50 ratio, CI); details: for IC50 Ratio: IC50 of Reference Example Compound 55 : IC50 of other compound = 1:value; for CI: at ED50; for Comprehensive Evaluation: combined use with Reference Example Compound 55
[3] = test system: human acute T lymphoblastic leukemia CCRF-CEM cell lines; experiment: Cell growth inhibition 1 (CellTiter-Glo); type: cell-based; details: culture with test compound 72 hours

| Structure (SMILES) | IC50 [1] | IC50 [3] | further results |
| --- | --- | --- | --- |
| N.N.O=C([O-])C1(C(=O)[O-])CCC1.[Pt+2] [Carboplatin, carboplatin] | – | – | IC50 Ratio ([2]; A549): 38; CI ([2]; A549, Reference Example Compound 55:other compound 1:17): 0.41; CI ([2]; A549, Reference Example Compound 55:other compound 1:50): 0.87; Comprehensive Evaluation ([2]; A549): Slight |
| COc1ccc(C#Cc2cn([C@@H]3C[C@H](CNS(N)(=O)=O)[C@@H](O)[C@H]3O)c3ncnc(N)c23)c(S(C)(=O)=O)c1 [Reference Example 113, 4-Amino-7-[(1R,2S,3R,4R)-2,3-dihydroxy-4-[(sulfamoylamino)methyl]cyclopentyl]-5-[2-(4-methoxy-2-methylsulfonyl-phenyl)ethynyl]pyrrolo[2,3-d]pyrimidine] | ≤ 0.003 µM | – | – |
| N.N.[Cl][Pt][Cl] [Cisplatin, cisplatin] | – | – | IC50 Ratio ([2]; HCT116): 343; CI ([2]; HCT116, Reference Example Compound 55:other compound 1:333): 0.44; CI ([2]; HCT116, Reference Example Compound 55:other compound 1:1000): 0.72; Comprehensive Evaluation ([2]; HCT116): Moderate |
| CS(=O)(=O)c1ccccc1C#Cc1cn([C@@H]2O[C@H](CNS(N)(=O)=O)[C@@H](O)[C@H]2O)c2ncnc(N)c12 [Reference Example 22, 4-Amino-7-[(2R,3R,4S,5R)-3,4-dihydroxy-5-[(sulfamoylamino)methyl]tetrahydrofuran-2-yl]-5-[2-(2-methylsulfonylphenyl)ethynyl]pyrrolo[2,3-d]pyrimidine] | ≤ 0.003 µM | – | – |
| CCS(=O)(=O)c1cc(N2CCCC2)cc(F)c1C#Cc1cn([C@@H]2C[C@H](CNS(N)(=O)=O)[C@@H](O)[C@H]2O)c2ncnc(N)c12 [Reference Example 114, 4-Amino-7-[(1R,2S,3R,4R)-2,3-dihydroxy-4-[(sulfamoylamino)methyl]cyclopentyl]-5-[2-(2-ethylsulfonyl-6-fluoro-4-pyrrolidin-1-yl-phenyl)ethynyl]pyrrolo[2,3-d]pyrimidine] | ≤ 0.003 µM | – | – |
| Nc1ncnc2c1c(C#Cc1c(F)cccc1F)cn2[C@@H]1O[C@H](COS(N)(=O)=O)[C@@H](O)[C@H]1O [Reference Example 132, [(2R,3S,4R,5R)-5-[4-Amino-5-[2-(2,6-difluorophenyl)ethynyl]pyrrolo[2,3-d]pyrimidin-7-yl]-3,4-dihydroxy-tetrahydrofuran-2-yl]methyl sulfamate] | ≤ 0.003 µM | 1.8 nM | – |
| CCS(=O)(=O)c1cc(N2CC[C@@H](F)C2)cc(F)c1C#Cc1cn([C@@H]2O[C@H](CNS(N)(=O)=O)[C@@H](O)[C@H]2O)c2ncnc(N)c12 [Reference Example 75, 4-Amino-7-[(2R,3R,4S,5R)-3,4-dihydroxy-5-[(sulfamoylamino)methyl]tetrahydrofuran-2-yl]-5-[2-[2-ethylsulfonyl-6-fluoro-4-[(3R)-3-fluoropyrrolidin-1-yl]phenyl]ethynyl]pyrrolo[2,3-d]pyrimidine] | ≤ 0.003 µM | – | – |
| O=C1[O][Pt]2([NH][C@@H]3CCCC[C@H]3[NH]2)[O]C1=O [Oxaliplatin, oxaliplatin] | – | – | IC50 Ratio ([2]; HL-60): 132; CI ([2]; HL-60, Reference Example Compound 55:other compound 1:100): 0.65; CI ([2]; HL-60, Reference Example Compound 55:other compound 1:300): 0.70; Comprehensive Evaluation ([2]; HL-60): Synergism (0.3-0.7) |
| CCOc1cccc(F)c1C#Cc1cn([C@@H]2C=C(CNS(N)(=O)=O)[C@@H](O)[C@H]2O)c2ncnc(N)c12 [Reference Example 129, 4-Amino-7-[(1R,4R,5S)-4,5-dihydroxy-3-[(sulfamoylamino)methyl]cyclopent-2-en-1-yl]-5-[2-(2-ethoxy-6-fluoro-phenyl)ethynyl]pyrrolo[2,3-d]pyrimidine] | ≤ 0.003 µM | 2.1 nM | – |
| Nc1ncnc2c1c(C#Cc1ccccc1)cn2[C@@H]1O[C@H](COS(N)(=O)=O)[C@@H](O)[C@H]1O [Reference Example 131, [(2R,3S,4R,5R)-5-[4-amino-5-(2-phenylethynyl)pyrrolo[2,3-d]pyrimidin-7-yl]-3,4-dihydroxy-tetrahydrofuran-2-yl]methyl sulfamate] | ≤ 0.003 µM | – | – |
| CCOc1cccc(F)c1C#Cc1cn([C@@H]2O[C@H](CNS(N)(=O)=O)[C@@H](O)[C@H]2O)c2ncnc(N)c12 [Reference Example 55, 4-Amino-7-[(2R,3R,4S,5R)-3,4-dihydroxy-5-[(sulfamoylamino)methyl]tetrahydrofuran-2-yl]-5-[2-(2-ethoxy-6-fluoro-phenyl)ethynyl]pyrrolo[2,3-d]pyrimidine] | ≤ 0.003 µM | – | – |

Second part, led by results:

| IC50 [1] | IC50 [3] | Structure (SMILES) | further results |
| --- | --- | --- | --- |
| ≤ 0.003 µM | – | Nc1cc(F)c(C#Cc2cn([C@@H]3O[C@H](CNS(N)(=O)=O)[C@@H](O)[C@H]3O)c3ncnc(N)c23)c(F)c1 [Reference Example 24, 4-Amino-5-[2-(4-amino-2,6-difluoro-phenyl)ethynyl]-7-[(2R,3R,4S,5R)-3,4-dihydroxy-5-[(sulfamoylamino)methyl]tetrahydrofuran-2-yl]pyrrolo[2,3-d]pyrimidine] | – |
| ≤ 0.003 µM | 160 nM | Nc1ncnc2c1c(C#Cc1c(F)cc(N3CCS(=O)(=O)CC3)cc1F)cn2[C@@H]1O[C@H](CNS(N)(=O)=O)[C@@H](O)[C@H]1O [Reference Example 74, 4-[4-[2-[4-amino-7-[(2R,3R,4S,5R)-3,4-dihydroxy-5-[(sulfamoylamino)methyl]tetrahydrofuran-2-yl]pyrrolo[2,3-d]pyrimidin-5-yl]ethynyl]-3,5-difluoro-phenyl]-1,1-dioxo-1,4-thiazinane] | – |
| ≤ 0.003 µM | – | Nc1ncnc2c1c(C#Cc1c(F)cc(N3CCC(C(=O)O)C3)cc1F)cn2[C@@H]1O[C@H](CNS(N)(=O)=O)[C@@H](O)[C@H]1O (stereo partly drawn) [Reference Example 41, 1-[4-[2-[4-amino-7-[(2R,3R,4S,5R)-3,4-dihydroxy-5-[(sulfamoylamino)methyl]tetrahydrofuran-2-yl]pyrrolo[2,3-d]pyrimidin-5-yl]ethynyl]-3,5-difluoro-phenyl]pyrrolidine-3-carboxylic Acid] | – |
| ≤ 0.003 µM | – | COC(=O)c1cc(F)c(C#Cc2cn([C@@H]3O[C@H](CNS(N)(=O)=O)[C@@H](O)[C@H]3O)c3ncnc(N)c23)c(F)c1 [Reference Example 58, Methyl 4-[2-[4-amino-7-[(2R,3R,4S,5R)-3,4-dihydroxy-5-[(sulfamoylamino)methyl]tetrahydrofuran-2-yl]pyrrolo[2,3-d]pyrimidin-5-yl]ethynyl]-3,5-difluoro-benzoate] | – |
| ≤ 0.003 µM | 19 nM | Nc1ncnc2c1c(C#Cc1c(F)cc(N3CCC[C@@H](O)C3)cc1F)cn2[C@@H]1O[C@H](CNS(N)(=O)=O)[C@@H](O)[C@H]1O [Reference Example 40, 4-Amino-5-[2-[2,6-difluoro-4-[(3R)-3-hydroxy-1-piperidyl]phenyl]ethynyl]-7-[(2R,3R,4S,5R)-3,4-dihydroxy-5-[(sulfamoylamino)methyl]tetrahydrofuran-2-yl]pyrrolo[2,3-d]pyrimidine] | – |
| ≤ 0.003 µM | – | Nc1ncnc2c1c(C#Cc1c(F)cc(N3CCOCC3)cc1F)cn2[C@@H]1O[C@H](CNS(N)(=O)=O)[C@@H](O)[C@H]1O [Reference Example 23, 4-[4-[2-[4-Amino-7-[(2R,3R,4S,5R)-3,4-dihydroxy-5-[(sulfamoylamino)methyl]tetrahydrofuran-2-yl]pyrrolo[2,3-d]pyrimidin-5-yl]ethynyl]-3,5-difluoro-phenyl]morpholine] | – |
| ≤ 0.003 µM | 7.8 nM | Nc1ncnc2c1c(C#Cc1c(F)cc(N3CC(O)C3)cc1F)cn2[C@@H]1O[C@H](CNS(N)(=O)=O)[C@@H](O)[C@H]1O [Reference Example 39, 4-Amino-5-[2-[2,6-difluoro-4-(3-hydroxyazetidin-1-yl)phenyl]ethynyl]-7-[(2R,3R,4S,5R)-3,4-dihydroxy-5-[(sulfamoylamino)methyl]tetrahydrofuran-2-yl]pyrrolo[2,3-d]pyrimidine] | – |
| ≤ 0.003 µM | 37 nM | Nc1ncnc2c1c(C#Cc1c(F)cc(N3CCCC3=O)cc1F)cn2[C@@H]1O[C@H](CNS(N)(=O)=O)[C@@H](O)[C@H]1O [Reference Example 33, 4-Amino-5-[2-[2,6-difluoro-4-(2-oxopyrrolidin-1-yl)phenyl]ethynyl]-7-[(2R,3R,4S,5R)-3,4-dihydroxy-5-[(sulfamoylamino)methyl]tetrahydrofuran-2-yl]pyrrolo[2,3-d]pyrimidine] | – |
